{"source": "patent US4631289A", "about": "“Useful in radiotherapy of chemotherapy 4-aziridino-1-nitroimidazol-1-yl-2,3-butanediols” (National Research Development Corporation, priority 1982, dated 1986)", "key": {"[1]": {"experiment": "Toxicity, LD50, i.p. in female WHT mice", "conditions": "mouse, in vivo, ip", "source_text": "(§1) ^b Drugs administered i.p. to .female. WHT mice."}, "[2]": {"tested_on": "irradiated hypoxic V79 mammalian cells", "experiment": "Sensitisation: concentration for enhancement ratio of 1.6 in irradiated hypoxic V79 cells", "format": "cell-based", "conditions": "Cricetulus griseus, read-out: C1.6 (concentration required to achieve an enhancement ratio of 1.6)", "source_text": "^a Concentration required to achieve an enhancement ratio of 1.6 in\nirradiated hypoxic V79 mammalian cells."}, "MT tumour [3]": {"tested_on": "MT tumour", "experiment": "Radiosensitization: enhancement of radiation treatment in WHT mice bearing MT tumour (Example 2)", "format": "in vivo", "conditions": "administered dose 3.8 mmoles/kg, intraperitoneal, before radiation; tumour implanted subcutaneously", "protocol": "(§2) In the following Examples, WHT mice in which the MT tumour has been implanted subcutaneously are administered the compound of Example 1 intraperitoneally before treatment with radiation or with the chemotherapeutic agent melphalan. The time before such treatment at which the drug is administered is such that maximum enhancement is effected. The results of treatment with radiation and the chemotherapeutic drug are set out respectively in Tables I and II together with comparison results using misonidazole (MISO) and the compound Ro-03-8799. The asterisks against the results from treatment with the latter compounds indicate that the tumours treated in these cases are intramuscular."}, "[4]": {"experiment": "Toxicity, LD50, i.p. in male CRCD1 mice", "conditions": "mouse, in vivo, ip, male CRCD1 mice (footnote c)", "source_text": "as §1\n^c For Compound of Example 1 in .male. CRCD1 mice"}, "MT tumour [5]": {"tested_on": "MT tumour", "experiment": "Chemosensitization (melphalan): enhancement of melphalan treatment in WHT mice bearing MT tumour (Example 3)", "format": "in vivo", "conditions": "i.p. before melphalan", "protocol": "as §2"}, "[6]": {"conditions": "administered dose 0.72 mmoles/kg, * tumours intramuscular"}}, "note": "Where two headings read alike, the source gives them in different places."}
{"smiles": "C[C@@H]1[C@H](C)N1CC(O)Cn1ccnc1[N+](=O)[O-]", "note": "(relative stereo) [Example 13, 1-(2-Nitro-1-imidazolyl)-3-(2,3-dimethyl-1-aziridino)-2-propanol]", "values": [{"measurement": "LD50", "setting": "[1]", "value": "≤ 1250", "unit": "µmol/kg"}, {"measurement": "EC (enhancement ratio 1.6)", "setting": "[2]; V79, light or radiation study", "value": 80, "unit": "µM"}]}
{"smiles": "C[C@@H]1[C@@H](C)N1CC(O)Cn1ccnc1[N+](=O)[O-]", "note": "(relative stereo) [Example 14, 1-(2-Nitro-1-imidazolyl)-3-(2,3-dimethyl-1-aziridino)-2-propanol]", "values": [{"measurement": "EC (enhancement ratio 1.6)", "setting": "[2]; V79, light or radiation study", "value": 80, "unit": "µM"}]}
{"smiles": "O=[N+]([O-])c1nccn1CC(O)CN1CC1", "note": "(stereo not shown) [Example 1, 1-(2-Nitro-1-imidazolyl)-3-(1-aziridino)-2-propanol]", "values": [{"measurement": "Enhancement ratio (Radiosensitization)", "setting": "MT tumour [3]", "value": 1.7}, {"measurement": "LD50", "setting": "[4]", "value": 610, "unit": "µmol/kg"}, {"measurement": "Enhancement ratio (Chemosensitization, melphalan)", "setting": "MT tumour [5]; administered dose 0.08 mmoles/kg, tumour implanted subcutaneously", "value": 3.0}, {"measurement": "EC (enhancement ratio 1.6)", "setting": "[2]; light or radiation study, irradiated hypoxic V79 mammalian cells", "value": 100, "unit": "µM"}]}
{"smiles": "CC1CN1CC(O)Cn1ccnc1[N+](=O)[O-]", "note": "(stereo not shown) [Example 4, 1-(2-Nitro-1-imidazolyl)-3-(2-methyl-1-aziridino)-2-propanol]", "values": [{"measurement": "LD50", "setting": "[1]", "value": "< 580", "unit": "µmol/kg"}, {"measurement": "EC (enhancement ratio 1.6)", "setting": "[2]; V79, light or radiation study", "value": 80, "unit": "µM"}]}
{"smiles": "CCC1CN1CC(O)Cn1ccnc1[N+](=O)[O-]", "note": "(stereo not shown) [Example 5, 1-(2-Nitro-1-imidazolyl)-3-(2-ethyl-1-aziridino)-2-propanol]", "values": [{"measurement": "LD50", "setting": "[1]", "value": 580, "unit": "µmol/kg"}, {"measurement": "EC (enhancement ratio 1.6)", "setting": "[2]; V79, light or radiation study", "value": 130, "unit": "µM"}]}
{"smiles": "CC1(C)CN1CC(O)Cn1ccnc1[N+](=O)[O-]", "note": "(stereo not shown) [Example 7, 1-(2-Nitro-1-imidazolyl)-3-(2,2-dimethyl-1-aziridino)-2-propanol]", "values": [{"measurement": "LD50", "setting": "[1]", "value": 1250, "unit": "µmol/kg"}, {"measurement": "EC (enhancement ratio 1.6)", "setting": "[2]; V79, light or radiation study", "value": 80, "unit": "µM"}]}
{"smiles": "O=[N+]([O-])c1nccn1CC(O)CN1CC1c1ccccc1", "note": "(stereo not shown) [Example 8, 1-(2-Nitro-1-imidazolyl)-3-(2-phenyl-1-aziridino)-2-propanol]", "values": [{"measurement": "EC (enhancement ratio 1.6)", "setting": "[2]; V79, light or radiation study", "value": 300, "unit": "µM"}]}
{"smiles": "CC(C)C1CN1CC(O)Cn1ccnc1[N+](=O)[O-]", "note": "(stereo not shown) [Example 9, 1-(2-Nitro-1-imidazolyl)-3-(2-isopropyl-1-aziridino)-2-propanol]", "values": [{"measurement": "LD50", "setting": "[1]", "value": "≤ 1180", "unit": "µmol/kg"}, {"measurement": "EC (enhancement ratio 1.6)", "setting": "[2]; V79, light or radiation study", "value": 130, "unit": "µM"}]}
{"smiles": "O=[N+]([O-])c1nccn1CC(O)C(O)CN1CC1", "note": "(stereo not shown) [Example 10, 1-(2-Nitro-1-imidazolyl)-4-(1-aziridino) or substituted aziridino)-2,3-butane-diol]", "values": [{"measurement": "LD50", "setting": "[1]", "value": 410, "unit": "µmol/kg"}, {"measurement": "EC (enhancement ratio 1.6)", "setting": "[2]; V79, light or radiation study", "value": 130, "unit": "µM"}]}
{"smiles": "Cc1ncc([N+](=O)[O-])n1CC(O)CN1CC1", "note": "(stereo not shown) [Example 11, 1-(2-methyl-5-nitro-1-imidazolyl)-3-(1-aziridino or substitutedaziridino)-2-propanol]", "values": [{"measurement": "LD50", "setting": "[1]", "value": 800, "unit": "µmol/kg"}, {"measurement": "EC (enhancement ratio 1.6)", "setting": "[2]; V79, light or radiation study", "value": 300, "unit": "µM"}]}
{"smiles": "O=[N+]([O-])c1nccn1CC(O)CN1CCCCC1", "note": "(stereo not shown) [Example 8799]", "values": [{"measurement": "Enhancement ratio (Radiosensitization)", "setting": "MT tumour [3]", "value": 1.3}, {"measurement": "Enhancement ratio (Chemosensitization, melphalan)", "setting": "MT tumour [5]; [6]", "value": 2.2}, {"measurement": "Enhancement ratio (Chemosensitization, melphalan)", "setting": "MT tumour [5]; administered dose 0.72 mmoles/kg, tumour implanted subcutaneously", "value": 1.9}]}
{"smiles": "COCC(O)Cn1ccnc1[N+](=O)[O-]", "note": "(stereo not shown) [MISO, misonidazole]", "values": [{"measurement": "Enhancement ratio (Radiosensitization)", "setting": "MT tumour [3]", "value": 1.3}, {"measurement": "Enhancement ratio (Chemosensitization, melphalan)", "setting": "MT tumour [5]; [6]", "value": 1.7}]}
